Marks after values point to notes of the source that are not given here.
What was measured:
[1] = system: rats of the Wistar strain; test: Analgesic effect (Randall-Selitto method); type: in vivo; settings: oral; for ED50 / responders at 50 mg/kg: Rattus norvegicus; for responders at 50 mg/kg / Analgesic effect (Randall-Selitto): fraction of animals; for Analgesic effect (Randall-Selitto): dose 25 mg/kg (*)
Experimental: These tests were conducted according to the Randall-Selitto method using rats of the Wistar strain [L.O. Randall, J.J. Selitto: Arch. int. Pharmacodyn. 111, 409 (1957)]. Except where otherwise noted, the dose of test compound was 50 mg/kg.

[2] = system: carrageenan-induced edema; test: Anti-inflammatory effect (carrageenan edema method); type: in vivo, rats of the Wistar strain; settings: oral, Wistar rats; for ED50: Rattus norvegicus, ID₅₀
gastric acid secretions = test: Anti-ulcer activity: suppression of gastric acid secretions (Shay method); type: in vivo, rats; settings: gastric acid secretion
[3] = system: male mice of the ddy strain; test: Acute toxicity; type: in vivo; settings: fraction of animals; dose 300 mg/kg oral in 0.5% carboxymethyl cellulose, observed for 7 days
Experimental: The test animals employed were male mice of the ddy strain (age: 5 weeks). […] The dose of test compound was 300 mg/kg.

[4] = system: carrageenan-induced edema; test: Anti-inflammatory effect (carrageenan edema method); type: in vivo, rats of the Wistar strain; settings: Rattus norvegicus, percent inhibition of carrageenan-induced edema, oral
Experimental: The percent inhibition against carrageenan-induced edema in rats of the Wistar strain, using the conventional method of C.A. Winter, E.A. Risley, G.W. Nuss [J. Pharmacol., Exp. Therap., 141, 369 (1963)]. Except where otherwise noted, the dose of test compound was 50 mg/kg.

[5] = system: inflammation induced by anti-rat IgG rabbit serum; test: Anti-inflammatory effect (reversed passive alusas reaction, Evans blue extraction); type: in vivo, rats of the Sprague-Dawley strain; settings: oral; for inhibition in vivo at 50 mg/kg / inhibition in vivo at 25 mg/kg: 2.5 h, percent inhibition of inflammation relative to control group; for ED50: ID₅₀, Sprague-Dawley rats
Experimental: The test animals were rats of the Sprague-Dawley strain, which had first been fasted for 17 hours. The hair was trimmed from their dorsal portions by means of a hair clipper, and 0.1 ml/site of anti-rat IgG rabbit serum was injected intracutaneously at the trimmed part to induce inflammation. Except in the case of the control animals, to which no anti-inflammatory drug was administered, the test drug was administered orally immediately before inflammation was induced. Except where otherwise noted, the dose of test compound was 50 mg/kg. Two hours after induction of inflammation, a 1% by volume solution of Evans blue in physiological saline was injected intravenously into the tail of each rat in an amount of 1 ml per each animal. 30 minutes after this injection, the rats were sacrificed with carbon dioxide and their skins were peeled off to extract the chromogen of the blue spots. In more detail, the skins were cut into small pieces and extracted with 5 ml of an extraction solvent at room temperature for 2 days. The supernatant obtained by centrifugation was then measured spectrophotometrically at an absorption wavelength of 605 nm. The percent inhibition of inflammation of the group of rats to which the test drug was administered was determined relative to the control group.

5-lipoxygenase = target: T1, 5-lipoxygenase (Cavia porcellus, UniProt A0A286X958); test: 5-Lipoxygenase inhibitory activity (5-HITE production by polymorphonuclear leukocyte enzyme fraction); type: biochemical, male guinea pigs of the Hartley strain; settings: inhibition of production of 5-HITE from [14C]-arachidonic acid; 30°C, 30 minutes, pH 7.4; read-out: IC₅₀ (converted)
T1 construct: The supernatant was isolated as an enzyme fraction; from tissue; host or cells: Casein-elicited peritoneal polymorphonuclear leukocytes of male Hartley guinea pigs; sonicated, 10,000 G supernatant
T1 sequence (A0A286X958 1-674): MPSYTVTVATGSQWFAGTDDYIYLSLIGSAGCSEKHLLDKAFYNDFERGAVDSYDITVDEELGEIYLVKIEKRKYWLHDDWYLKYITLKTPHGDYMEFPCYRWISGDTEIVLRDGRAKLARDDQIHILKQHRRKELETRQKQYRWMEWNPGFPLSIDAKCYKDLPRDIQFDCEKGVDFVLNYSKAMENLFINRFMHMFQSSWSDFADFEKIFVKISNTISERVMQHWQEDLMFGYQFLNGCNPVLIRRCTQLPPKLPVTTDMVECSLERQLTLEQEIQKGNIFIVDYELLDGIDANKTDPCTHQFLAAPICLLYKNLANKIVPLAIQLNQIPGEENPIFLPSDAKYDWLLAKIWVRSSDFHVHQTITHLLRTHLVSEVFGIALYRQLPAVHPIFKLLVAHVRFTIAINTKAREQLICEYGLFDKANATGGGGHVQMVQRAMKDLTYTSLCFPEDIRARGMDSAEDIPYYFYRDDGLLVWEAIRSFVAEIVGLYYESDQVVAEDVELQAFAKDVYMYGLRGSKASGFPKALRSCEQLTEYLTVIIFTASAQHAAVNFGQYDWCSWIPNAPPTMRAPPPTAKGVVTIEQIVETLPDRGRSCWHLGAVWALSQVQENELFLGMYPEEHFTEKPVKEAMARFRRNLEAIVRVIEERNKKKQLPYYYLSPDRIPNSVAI
Experimental: The preparation of polymorphonuclear leukocytes was carried out by the method of Sbarra et al [Sbarra A.J. and Karnovsky, M. L.; J. Biol. Chem., 234, 1355 - 1362 (1959)]. Specifically, a 2% w/v aqueous casein solution was administered intraperitoneally to male guinea pigs of the Hartley strain, each weighing about 400 - 500 g. The polymorphonuclear leukocytes were harvested from the peritoneal exudate 14 - 16 hours after the administration. The preparation of enzyme was carried out by the method of Yoshimoto et al [Yoshimoto, T., Furakawa, M., Yamamoto, S., Horie, T. and Watanabe-Kohno, S.; Biochem. Biophys. Commun., 116, 612 - 618 (1983)]. The harvested polymorphonuclear leukocytes were suspended in a 50 mM phosphate buffer solution (pH = 7.4) containing 10% ethylene glycol and 1mM EDTA at a density of 1 x 10⁸ cells/ml. The suspension was subjected to ultrasound twice, each time for 30 seconds at 20 KHz, and was then centrifuged for 10 minutes at 10,000 G. The supernatant was isolated as an enzyme fraction, which was stored at -80°C. The enzyme assay was carried out by a modification of Ochi's method [Ochi, K., Yoshimoto, T., Yamamoto., S., Taniguchi, K. and Miyamoto, T.; J. Biol. Chem., 258, 5754-5758 (1983)]. Specifically, 2 mM CaCℓ₂, 1 mM glutathione, 2 mM ATP (adenosine-5′-triphosphate), 16 µM [¹⁴C]-arachidonic acid (0.16 µCi, dissolved in 5 µl ethanol), the test compound (dissolved in 4 µl DMSO) and the enzyme solution (containing 200 µg of protein) were made up to a final volume of 200 µl in a 50 mM potassium phosphate buffer solution (pH = 7.4). The test compound and the enzyme were preincubated at 30°C for 5 minutes. After the addition of the arachidonic acid, the mixture was incubated at 30°C for 30 minutes. The reaction was stopped by the addition of 50µl of 0.2N citric acid. The reaction mixture was then extracted with ethyl acetate and the extract was concentrated under a stream of nitrogen. The concentrate was subjected to thin layer chromatography and eluted with a 85 : 15 : 0.1 by volume mixture of diethyl ether, petroleum ether and acetic acid. The 5-hydroxyicosatetraenoic acid (5-HITE) fraction of the plate was identified with a radioactive scanner and the radioactivity was measured. The IC₅₀ (µg/ml) was calculated against the inhibitory rate of the production of 5-HITE of a control group, to which a test compound was not administered.

Compound	ED50 ([1]; ED₅₀, Wistar rats)	ED50 [2]	Toxicity (mouse) [3]	inhibition in vivo at 50 mg/kg [4]	responders at 50 mg/kg [1]	inhibition in vivo at 50 mg/kg [5]	ED50 [5]	also measured
3-methoxy-1-(4-methoxy-6-methylpyrimidin-2-yl)-5-methylpyrazole [Mepirizole, reference compound]	–	–	–	–	–	–	–	Analgesic Randall-Selitto (ED₅₀) ([1]; ED₅₀, Wistar rats): 63.9 mg/kg; Anti-inflammatory Carrageenan (ID₅₀) [2]: 106 mg/kg
CN(C)CCCOc1nn(Cc2ccccc2)c2ccccc12 [Benzydamine, reference compound]	> 200 mg/kg	193 mg/kg	–	–	–	–	–	–
CN/C(=N/CCSCc1nc[nH]c1C)NC#N [Cimetidine, reference compound]	–	–	–	–	–	–	–	Suppression rate (%) (gastric acid secretions; dosage 10 mg/kg i.d.): 62%; Suppression rate (%) (gastric acid secretions; dosage 30 mg/kg i.d.): 58%
FC(F)(F)c1ccc(-c2cc3[nH]ccn3n2)cc1 [Example 1, 6-(4-Trifluoromethylphenyl)-1H-imidazo[1,2-b]pyrazole]	–	–	0/3	44.2%	80%	–	–	–
FC(F)(F)c1cccc(-c2cc3[nH]ccn3n2)c1 [Example 2]	–	–	0/3	54%	60%	69.6%	–	–
c1ccc(-c2cc3[nH]ccn3n2)cc1 [Example 3, 6-phenyl-1H-imidazo[1,2-b]pyrazole]	6.1 mg/kg	36.6 mg/kg	0/5	65.1%	100%	88%	13.9 mg/kg	Suppression rate (%) (gastric acid secretions; dosage 10 mg/kg i.d.): 66%; Suppression rate (%) (gastric acid secretions; dosage 30 mg/kg i.d.): 85%
Cc1c(-c2ccccc2)nn2cc[nH]c12 [Example 4, 7-methyl-6-phenyl-1H-imidazo[1,2-b]pyrazole]	2.4 mg/kg	34.1 mg/kg	0/5	64.9%	100%	60.5%	26.7 mg/kg	Suppression rate (%) (gastric acid secretions; dosage 10 mg/kg i.d.): 67%; Suppression rate (%) (gastric acid secretions; dosage 30 mg/kg i.d.): 100%
COc1ccc(-c2cc3[nH]ccn3n2)cc1 [Example 5]	–	–	0/3	53.7%	100%	67.6%	–	–
Clc1ccc(-c2cc3[nH]ccn3n2)cc1 [Example 8, 6-(p-chlorophenyl)-1H-imidazo[1,2-b]pyrazole]	–	–	0/3	76.5%	100%	74.7%	–	–
CCc1c(-c2ccccc2)nn2cc[nH]c12 [Example 10]	–	–	0/3	51.3%	100%	56.3%	–	IC50 (5-lipoxygenase): 5.21 µM
CC(C)c1c(-c2ccccc2)nn2cc[nH]c12 [Example 11]	–	–	–	–	–	–	–	IC50 (5-lipoxygenase): 8.88 µM
CCCCc1c(-c2ccccc2)nn2cc[nH]c12 [Example 12]	–	–	–	–	–	–	–	IC50 (5-lipoxygenase): 3.93 µM
c1csc(-c2cc3[nH]ccn3n2)c1 [Example 20, 6-(2-Thienyl)-1H-imidazo[1,2-b]pyrazole]	8 mg/kg	17.1 mg/kg	0/3	89.3%	100%	79.6%	7 mg/kg	Suppression rate (%) (gastric acid secretions; dosage 10 mg/kg i.d.): 84%; Suppression rate (%) (gastric acid secretions; dosage 30 mg/kg i.d.): 93%
Cc1c(-c2cccs2)nn2cc[nH]c12 [Example 21, 7-Methyl-6-(2-thienyl)-1H-imidazo[1,2-b]pyrazole]	10 mg/kg	22.3 mg/kg	0/3	53.4%	100%	–	7.9 mg/kg	inhibition in vivo at 25 mg/kg [5]: 78.1%
c1coc(-c2cc3[nH]ccn3n2)c1 [Example 22, 6-(2-Furyl)-1H-imidazo[1,2-b]pyrazole]	–	–	0/3	76.3%	–	–	–	Analgesic effect (Randall-Selitto) [1]: 4/5*
CCc1c(-c2cccs2)nn2cc[nH]c12 [Example 24]	–	–	0/3	71.9%	–	–	–	Analgesic effect (Randall-Selitto) [1]: 4/5*
c1ccc(-c2cnn3cc[nH]c23)cc1 [Example 29, 7-Phenyl-1H-imidazo[1.2-b]pyrazole]	5.1 mg/kg	20.1 mg/kg	0/3	–	–	–	14.8 mg/kg	inhibition in vivo at 25 mg/kg [4]: 63.2%; inhibition in vivo at 25 mg/kg [5]: 72.2%; Analgesic effect (Randall-Selitto) [1]: 5/5*
Cc1nn2cc[nH]c2c1-c1ccccc1 [Example 30, 6-methyl-7-phenyl-1H-imidazo[1,2-b]pyrazole]	5.9 mg/kg	25 mg/kg	0/3	–	–	–	–	inhibition in vivo at 25 mg/kg [4]: 50%; Analgesic effect (Randall-Selitto) [1]: 5/5*; IC50 (5-lipoxygenase): 2.53 µM
c1csc(-c2cnn3cc[nH]c23)c1 [Example 32, 7-(2-thienyl)-1H-imidazo[1,2-b]pyrazole]	6.9 mg/kg	23.4 mg/kg	0/3	–	–	–	10.9 mg/kg	inhibition in vivo at 25 mg/kg [4]: 54.7%; inhibition in vivo at 25 mg/kg [5]: 82.5%; Analgesic effect (Randall-Selitto) [1]: 5/5*
CCCCCCCCCc1c(-c2ccccc2)nn2cc[nH]c12 [Example 41]	–	–	–	–	–	–	–	IC50 (5-lipoxygenase): 2.13 µM

— patent publication EP0353047B1, “Use of imidazopyrazole derivatives as analgesics and anti-inflammatory agents” (Sankyo Company Limited, priority 1988, dated 1990)
